According to the NIST ThermoML archive (doi:10.1016/j.jct.2014.05.016):
Numbers after ± are expanded uncertainties.

Experiment: xn = mol fraction of the nth substance listed
Settings: 100 kPa, Liquid; for mass density: Vibrating tube method; for viscosity: Concentric cylinders viscometry

C[n+]1ccn(CCO)c1.F[B-](F)(F)F [1-(2-hydroxyethyl)-3-methylimidazolium tetrafluoroborate] + CCCC[n+]1ccccc1.F[B-](F)(F)F
Settings | mass density [kg/m3] | viscosity [mPa·s]
318.15 K, x1 = 0.1003 | 1211.8 ± 1.1 | –
318.15 K, x1 = 0.2004 | 1225 ± 1.1 | –
318.15 K, x1 = 0.3003 | 1238.3 ± 1.1 | –
318.15 K, x1 = 0.3999 | 1252 ± 1.1 | –
318.15 K, x1 = 0.5007 | 1266.3 ± 1.1 | –
318.15 K, x1 = 0.5991 | 1280.7 ± 1.1 | –
318.15 K, x1 = 0.6954 | 1295.2 ± 1.1 | –
318.15 K, x1 = 0.7997 | 1311.4 ± 1.1 | –
318.15 K, x1 = 0.8996 | 1327.5 ± 1.1 | –
318.15 K, x1 = 1 | 1343.7 ± 1.1 | –
323.15 K, x1 = 0.1003 | 1208.4 ± 1.1 | 46.31 ± 3.7
323.15 K, x1 = 0.2001 | – | 44.75 ± 3.6
323.15 K, x1 = 0.2004 | 1221.5 ± 1.1 | –
323.15 K, x1 = 0.2997 | – | 43.16 ± 3.5
323.15 K, x1 = 0.3003 | 1234.8 ± 1.1 | –
323.15 K, x1 = 0.3999 | 1248.5 ± 1.1 | 41.83 ± 3.4
323.15 K, x1 = 0.4996 | – | 40.75 ± 3.3
323.15 K, x1 = 0.5007 | 1262.7 ± 1.1 | –
323.15 K, x1 = 0.5991 | 1277.1 ± 1.1 | 39.57 ± 3.2
323.15 K, x1 = 0.6954 | 1291.8 ± 1.1 | –
323.15 K, x1 = 0.6997 | – | 38.63 ± 3.1
323.15 K, x1 = 0.7997 | 1307.8 ± 1.1 | –
323.15 K, x1 = 0.7999 | – | 37.9 ± 3
323.15 K, x1 = 0.8996 | 1323.8 ± 1.1 | –
323.15 K, x1 = 0.8998 | – | 36.75 ± 2.9
323.15 K, x1 = 1 | 1340.1 ± 1.1 | 36.5 ± 2.9
328.15 K, x1 = 0.1003 | 1205.1 ± 1.1 | 38.01 ± 3.1
328.15 K, x1 = 0.2001 | – | 36.85 ± 3
328.15 K, x1 = 0.2004 | 1218.1 ± 1.1 | –
328.15 K, x1 = 0.2997 | – | 35.7 ± 2.9
328.15 K, x1 = 0.3003 | 1231.3 ± 1.1 | –
328.15 K, x1 = 0.3999 | 1245 ± 1.1 | 34.64 ± 2.8
328.15 K, x1 = 0.4996 | – | 33.74 ± 2.7
328.15 K, x1 = 0.5007 | 1259.2 ± 1.1 | –
328.15 K, x1 = 0.5991 | 1273.5 ± 1.1 | 32.9 ± 2.6
328.15 K, x1 = 0.6954 | 1288 ± 1.1 | –
328.15 K, x1 = 0.6997 | – | 32.19 ± 2.6
328.15 K, x1 = 0.7997 | 1304.1 ± 1.1 | –
328.15 K, x1 = 0.7999 | – | 31.58 ± 2.5
328.15 K, x1 = 0.8996 | 1320.2 ± 1.1 | –
328.15 K, x1 = 0.8998 | – | 30.65 ± 2.5
328.15 K, x1 = 1 | 1336.4 ± 1.1 | 30.46 ± 2.4
333.15 K, x1 = 0.1003 | 1201.7 ± 1.1 | 31.61 ± 2.5
333.15 K, x1 = 0.2001 | – | 30.75 ± 2.5
333.15 K, x1 = 0.2004 | 1214.6 ± 1.1 | –
333.15 K, x1 = 0.2997 | – | 29.88 ± 2.4
333.15 K, x1 = 0.3003 | 1227.9 ± 1.1 | –
333.15 K, x1 = 0.3999 | 1241.5 ± 1.1 | 29.05 ± 2.3
333.15 K, x1 = 0.4996 | – | 28.35 ± 2.3
333.15 K, x1 = 0.5007 | 1255.7 ± 1.1 | –
333.15 K, x1 = 0.5991 | 1270 ± 1.1 | 27.7 ± 2.2
333.15 K, x1 = 0.6954 | 1284.4 ± 1.1 | –
333.15 K, x1 = 0.6997 | – | 27.13 ± 2.2
333.15 K, x1 = 0.7997 | 1300.5 ± 1.1 | –
333.15 K, x1 = 0.7999 | – | 26.61 ± 2.1
333.15 K, x1 = 0.8996 | 1316.6 ± 1.1 | –
333.15 K, x1 = 0.8998 | – | 25.87 ± 2.1
333.15 K, x1 = 1 | 1332.8 ± 1.1 | 25.73 ± 2.1
338.15 K, x1 = 0.1003 | 1198.3 ± 1.1 | 26.6 ± 2.1
338.15 K, x1 = 0.2001 | – | 25.96 ± 2.1
338.15 K, x1 = 0.2004 | 1211.2 ± 1.1 | –
338.15 K, x1 = 0.2997 | – | 25.28 ± 2
338.15 K, x1 = 0.3003 | 1224.4 ± 1.1 | –
338.15 K, x1 = 0.3999 | 1238 ± 1.1 | 24.64 ± 2
338.15 K, x1 = 0.4996 | – | 24.09 ± 1.9
338.15 K, x1 = 0.5007 | 1252.2 ± 1.1 | –
338.15 K, x1 = 0.5991 | 1266.5 ± 1.1 | 23.58 ± 1.9
338.15 K, x1 = 0.6954 | 1280.9 ± 1.1 | –
338.15 K, x1 = 0.6997 | – | 23.11 ± 1.9
338.15 K, x1 = 0.7997 | 1297 ± 1.1 | –
338.15 K, x1 = 0.7999 | – | 22.69 ± 1.8
338.15 K, x1 = 0.8996 | 1312.9 ± 1.1 | –
338.15 K, x1 = 0.8998 | – | 22.08 ± 1.8
338.15 K, x1 = 1 | 1329.2 ± 1.1 | 21.98 ± 1.8
343.15 K, x1 = 0.1003 | 1194.9 ± 1.1 | 22.64 ± 1.8
343.15 K, x1 = 0.2001 | – | 22.15 ± 1.8
343.15 K, x1 = 0.2004 | 1207.8 ± 1.1 | –
343.15 K, x1 = 0.2997 | – | 21.6 ± 1.7
343.15 K, x1 = 0.3003 | 1221 ± 1.1 | –
343.15 K, x1 = 0.3999 | 1234.6 ± 1.1 | 21.12 ± 1.7
343.15 K, x1 = 0.4996 | – | 20.68 ± 1.7
343.15 K, x1 = 0.5007 | 1248.7 ± 1.1 | –
343.15 K, x1 = 0.5991 | 1263 ± 1.1 | 20.28 ± 1.6
343.15 K, x1 = 0.6954 | 1277.3 ± 1.1 | –
343.15 K, x1 = 0.6997 | – | 19.9 ± 1.6
343.15 K, x1 = 0.7997 | 1293.4 ± 1.1 | –
343.15 K, x1 = 0.7999 | – | 19.56 ± 1.6
343.15 K, x1 = 0.8996 | 1309.3 ± 1.1 | –
343.15 K, x1 = 0.8998 | – | 19.05 ± 1.5
343.15 K, x1 = 1 | 1325.5 ± 1.1 | 18.95 ± 1.5
